Test results: patent EP2487171A1, “Dihydrobenzopyran, thiochroman, tetrahydroquinoleine and tetrahydronaphthalene derivatives and their use in anti-cancer therapy” (Université de Liège, priority 2011, dated 2012)

How the values were obtained:
[1] = test system: U373; assay: MTT colorimetric assay, overall cell growth; format: cell-based; settings: Homo sapiens, U373 MG; U373 cells, 72 hours of incubation; read-out: IC50 (µM) In Vitro Growth Inhibitory Concentrations (MTT Colorimetric Assay) U373
Protocol: (§1) The compounds and particularly dihydrobenzopyran, thiochroman, tetrahydroquinoleine and tetrahydronaphthalene derivatives of the invention were evaluated for their anti-proliferative effect (by means of the colorimetric MTT assay), in the following human glioblastoma cell-lines U373, T98G and Hs683 and in the mouse glioma cell line GL261. Normal brain cells (primocultures from newborn mice) were also used in order to determine the bioselectivity (B^N/C) of the compounds of interest, i.e. the ratio between the concentrations that inhibits 50% of the growth of brain cancer (C) cells (glioma cells) and the concentration that inhibits 50% of the growth of normal (N) brain cells (primocultures of astrocytes). The ideal situation to be reached is a bioselectivity of B^N/C > 10.
(§2) MTT tests were performed in order to rapidly, i.e. within 5 days, measure the effect of compounds of this invention on the overall cell growth. The test measured the number of metabolically active living cells that were able to transform the yellow product 3-(4,5-dimethylthiazol-2-yl)-2,5-diphenyl tetrazolium bromide (herein referred as MTT) into the blue product formazan dye by mitochondrial reduction. The amount of formazan obtained at the end of the experiment, measured by means of a spectrophotometer, is directly proportional to the number of living cells. Optical density determination thus enabled a quantitative measurement of the effect of the investigated compounds as compared to the control condition (untreated cells) and/or to other reference compounds.
(§3) Three human cancer cell lines were used in the following MTT tests.
(§4) To perform the assay, cells were allowed to grow in 96-well micro-wells with a flat bottom with an amount of 100 µl of cell suspension per well with 1,000 to 8,000 cells/well depending on the cell type used. Each cell line was seeded in its appropriate culture medium.
(§5) The detailed experimental procedure was the following: after a 24-hour period of incubation at 37°C, the culture medium was replaced by 100 µl of fresh medium in which the tested compound was previously dissolved, at the following molar concentrations: 10^-8 M, 5.10^-8 M, 10^-7 M, 5.10^-7 M, 10^-6 M, 5.10^-6 M, 10^-5 M, 5.10^-5 M and 10^-4 M. Each experiment was performed in sextuplicate (6 times).
(§6) After 72 hours of incubation at 37°C with (experimental conditions) or without (control condition) the compound to be tested, the medium was replaced by 100 µl MTT dissolved in RPMI (1640 without phenol red) at a concentration of 0.5 mg/ml. The micro-wells were subsequently incubated during 3 hours and a half at 37°C and centrifuged at 1300 rpm during 10 minutes. MTT was removed and formazan crystals formed were dissolved in 100 µl DMSO. The micro-wells were shaken for 5 minutes and read on a spectrophotometer at wavelengths of 570 nm (maximal formazan absorbance).
(§7) For each experimental condition, the mean optical density was calculated, allowing the determination of the percentage of remaining living cells in comparison to the control.

[2] = test system: T98G; assay: MTT colorimetric assay, overall cell growth; settings: Homo sapiens, 72 h, read-out: IC50 (µM) In Vitro Growth Inhibitory Concentrations (MTT Colorimetric Assay) T98G;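 further: growth inhibition of the human glioblastoma line measured by MTT reduction to formazan, optical density read on a spectrophotometer at 570 nm, untreated cells as control, nine concentrations from 10 nM to 100 µM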
Protocol: The compounds and particularly dihydrobenzopyran, thiochroman, tetrahydroquinoleine and tetrahydronaphthalene derivatives of the invention were evaluated for their anti-proliferative effect (by means of the colorimetric MTT assay), in the following human glioblastoma cell-lines U373, T98G and Hs683 and in the mouse glioma cell line GL261. Normal brain cells (primocultures from newborn mice) were also used in order to determine the bioselectivity (B^N/C) of the compounds of interest, i.e. the ratio between the concentrations that inhibits 50% of the growth of brain cancer (C) cells (glioma cells) and the concentration that inhibits 50% of the growth of normal (N) brain cells (primocultures of astrocytes).
as §2, §3, §4, §5
The micro-wells were subsequently incubated during 3 hours and a half at 37°C and centrifuged at 1300 rpm during 10 minutes. MTT was removed and formazan crystals formed were dissolved in 100 µl DMSO. The micro-wells were shaken for 5 minutes and read on a spectrophotometer at wavelengths of 570 nm (maximal formazan absorbance).
as §7

[3] = test system: Hs683; assay: MTT colorimetric assay, overall cell growth; format: cell-based; settings: Homo sapiens, Hs 683; Hs683 cells, 72 hours of incubation; read-out: IC50 (µM) In Vitro Growth Inhibitory Concentrations (MTT Colorimetric Assay) Hs683
Protocol: as §1, §2, §3, §4, §5, §6, §7

[4] = test system: human U373 glioma cell line; assay: Quantitative videomicroscopy (computer-assisted phase-contrast microscopy); format: cell-based; settings: U373 cells treated at the IC50 concentration from MTT, filmed for 72h; cytostatic versus cytotoxic effects
Excerpt: In addition, the inventors could establish that the compounds of the invention act through a non-apoptosis-related mechanism thanks to a unique experimental approach used by the inventors, i.e. computer-assisted phase-contrast microscopy (quantitative videomicroscopy), making them good candidates as anti-cancer drugs for treating apoptosis-resistant tumor or cancer cells and for overcoming problems linked to the known anti-cancer drugs.
As the MTT test is based on the mitochondria functions, we also investigated the effects of the compounds according to the invention on cell proliferation, migration and morphology by means of a cellular imaging approach (Debeir et al., Cytometry 60:29-40, 2004; Debeir et al., IEEE Trans Med Imaging 24:697-711, 2005) in the human U373 glioma cell line, which is apoptosis-resistant but autophagy-sensitive (Lefranc F et al., Neurosurgery 2008).
Cellular imaging relied on the use of computer-assisted phase-contrast microscopy making possible to film the behaviour of living cells in culture dishes for several days.
Cells were seeded in a 25-cm^2 flask at a low density, treated or not with the compounds of the invention (at their IC50 concentration determined previously by MTT tests) and filmed thereafter for a period of 72h. The experiment was conducted in triplicate.
The behaviour of the cells, in terms of morphology, growth and death were thus investigated. The effect on the overall growth was measured by counting the number of cells on the first (0h) and the last image (72h) of each film. The global growth ratio (GGR) was then deduced by dividing the number of cells on the last image by the number of cells on the first image. The ratio GGRtreated cells / GGRcontrol cells, was further calculated thereby obtaining a value that describes the effect of compounds of the present invention on the overall cell growth.
The methodology is fully described and validated in Debeir et al., 2008, Exp Cell Res 314:2985-2998 and Mathieu et al., 2009, J Cell Mol Med, Feb 20, 2009.
Thanks to the quantitative videomicroscopy (QVM) approach, we classified the compounds into 4 distinctive classes on the basis of their cytostatic versus cytotoxic effects (Table 3). • Class I: actually cytostatic for 3 days (< 10 % of cell death at the 3rd day) • Class II: cytostatic but becomes cytotoxic with < 10% cell death on the 2nd day and > 20% of cell death on the 3rd day • Class III: cytostatic but rapidly becomes cytotoxic with < 10% cell death on the 1st day, > 20% of cell death on the 2nd day and > 50% of cell death on the 3rd day • Class IV: cytotoxic (> 50% of cell death on the first day)
In Fig. 1a, compounds of example 14 (5 µM), example 19 (20 µM) and example 23 (5 µM) belong to QVM Class I because they display cytostatic effects on human U373 GBM cells during the whole duration of the experiment. Cytostatic effects mean that < 10 % of cell death was recorded at the end of the experiment, i.e. at the end of the 3rd day. QVM analyses enable the global growth ratio (GGR) to be calculated in each experiment. The GGR index is obtained by dividing the number of cells in the last image by the number of cells in the first image of the experiment, knowing that 1080 images are taken during the 72 h-period of observation. The ratio GGR^treated cells / GGR^control cells was further calculated thereby obtaining a value that describes the effect of compounds on the overall cell growth. Thus, a GGR index of 0.2 means that they remain only 20% of treated cells compare to the control cells at the end of the experiment.

Structure (SMILES)	IC50 [1] [µM]	IC50 [2] [µM]	IC50 [3] [µM]	QVM Class [4]
CC(C)(C)OC(=O)Nc1ccc2c(c1)C(NC(=O)Nc1ccccc1Cl)CCO2 (racemic) [Example 1, R/S-N-2-chlorophenyl-N'-(6-tert-butoxycarbonylamino-3,4-dihydro-2H-1-benzopyran-4-yl)urea]	26	24	23	–
CC(C)(C)OC(=O)Nc1ccc2c(c1)C(NC(=O)Nc1cccc(Cl)c1)CCO2 (racemic) [Example 2, R/S-N-3-chlorophenyl-N'-(6-tert-butoxycarbonylamino-3,4-dihydro-2H-1-benzopyran-4-yl)urea]	19	29	28	–
CC(C)(C)OC(=O)Nc1ccc2c(c1)C(NC(=O)Nc1ccc(Cl)cc1)CCO2 (racemic) [Example 3, R/S-N-4-chlorophenyl-N'-(6-tert-butoxycarbonylamino-3,4-dihydro-2H-1-benzopyran-4-yl)urea]	11	> 100	> 100	–
CC(C)(C)OC(=O)Nc1ccc2c(c1)C(NC(=O)Nc1ccccc1C#N)CCO2 (racemic) [Example 4, R/S-N-2-cyanophenyl-N'-(6-tert-butoxycarbonylamino-3,4-dihydro-2H-1-benzopyran-4-yl)urea]	53	65	44	–
CC(C)(C)OC(=O)Nc1ccc2c(c1)C(NC(=O)Nc1cccc(C#N)c1)CCO2 (racemic) [Example 5, R/S-N-3-cyanophenyl-N'-(6-tert-butoxycarbonylamino-3,4-dihydro-2H-1-benzopyran-4-yl)urea]	29	38	25	–
CC(C)(C)OC(=O)Nc1ccc2c(c1)C(NC(=O)Nc1ccc(C#N)cc1)CCO2 (racemic) [Example 6, R/S-N-4-cyanophenyl-N'-(6-tert-butoxycarbonylamino-3,4-dihydro-2H-1-benzopyran-4-yl)urea]	42	39	30	–
CC(C)(C)OC(=O)Nc1ccc2c(c1)C(NC(=O)Nc1ccc(Cl)cc1)CC(C)(C)O2 (racemic) [Example 17, R/S-N-4-chlorophenyl-N'-(6-tert-butoxycarbonylamino-3,4-dihydro-2,2-dimethyl-2H-1-benzopyran-4-yl)urea]	22	26	26	III (Class III: cytostatic but rapidly becomes cytotoxic with < 10% cell death on the 1st day, > 20% of cell death on the 2nd day and > 50% of cell death on the 3rd day)
CC(C)(C)OC(=O)Nc1ccc2c(c1)C(NC(=O)Nc1ccc(F)cc1)CC(C)(C)O2 (racemic) [Example 18, R/S-N-4-fluorophenyl-N'-(6-tert-butoxycarbonylamino-3,4-dihydro-2,2-dimethyl-2H-1-benzopyran-4-yl)urea]	30	33	35	I (Class I: actually cytostatic for 3 days (< 10 % of cell death at the 3rd day))
CC(C)(C)OC(=O)Nc1ccc2c(c1)C(NC(=O)Nc1cccc(F)c1)CC(C)(C)O2 (racemic) [Example 19, R/S-N-3-fluorophenyl-N'-(6-tert-butoxycarbonylamino-3,4-dihydro-2,2-dimethyl-2H-1-benzopyran-4-yl)urea]	20	26	19	I (Class I: actually cytostatic for 3 days (< 10 % of cell death at the 3rd day))
CC(C)(C)OC(=O)Nc1ccc2c(c1)C(NC(=O)Nc1cccc(Br)c1)CC(C)(C)O2 (racemic) [Example 20, R/S-N-3-bromophenyl-N'-(6-tert-butoxycarbonylamino-3,4-dihydro-2,2-dimethyl-2H-1-benzopyran-4-yl)urea]	22	26	18	III (Class III: cytostatic but rapidly becomes cytotoxic with < 10% cell death on the 1st day, > 20% of cell death on the 2nd day and > 50% of cell death on the 3rd day)
CC(C)(C)OC(=O)Nc1ccc2c(c1)C(NC(=O)Nc1ccc([N+](=O)[O-])cc1)CC(C)(C)O2 (racemic) [Example 22, R/S-N-4-nitrophenyl-N'-(6-tert-butoxycarbonylamino-3,4-dihydro-2,2-dimethyl-2H-1-benzopyran-4-yl)urea]	24	26	20	IV (Class IV: cytotoxic (> 50% of cell death on the first day))
CC(C)(C)OC(=O)Nc1ccc2c(c1)C(NC(=O)Nc1ccccc1[N+](=O)[O-])CC(C)(C)O2 (racemic) [Example 27, R/S-N-2-nitrophenyl-N'-(6-tert-butoxycarbonylamino-3,4-dihydro-2,2-dimethyl-2H-1-benzopyran-4-yl)urea]	12	22	13	I (Class I: actually cytostatic for 3 days (< 10 % of cell death at the 3rd day))
CC(C)(C)OC(=O)Nc1ccc2c(c1)C(NC(=O)Nc1ccc(C(F)(F)F)cc1Cl)CC(C)(C)O2 (racemic) [Example 30, R/S-N-2-chloro-4-trifluoromethylphenyl-N'-(6-tert-butoxycarbonylamino-3,4-dihydro-2,2-dimethyl-2H-1-benzopyran-4-yl)urea]	26	34	25	II (Class II: cytostatic but becomes cytotoxic with < 10% cell death on the 2nd day and > 20% of cell death on the 3rd day)
CC(C)(C)OC(=O)Nc1ccc2c(c1)C(NC(=O)Nc1cc(C(F)(F)F)ccc1Cl)CC(C)(C)O2 (racemic) [Example 31, R/S-N-2-chloro-5-trifluoromethylphenyl-N'-(6-tert-butoxycarbonylamino-3,4-dihydro-2,2-dimethyl-2H-1-benzopyran-4-yl)urea]	15	38	12	II (Class II: cytostatic but becomes cytotoxic with < 10% cell death on the 2nd day and > 20% of cell death on the 3rd day)
CC(C)(C)OC(=O)Nc1ccc2c(c1)C(NC(=O)Nc1c(Cl)cccc1C(F)(F)F)CC(C)(C)O2 (racemic) [Example 32, R/S-N-2-chloro-6-trifluoromethylphenyl-N'-(6-tert-butoxycarbonylamino-3,4-dihydro-2,2-dimethyl-2H-1-benzopyran-4-yl)urea]	60	60	66	III (Class III: cytostatic but rapidly becomes cytotoxic with < 10% cell death on the 1st day, > 20% of cell death on the 2nd day and > 50% of cell death on the 3rd day)
CC(C)(C)OC(=O)Nc1ccc2c(c1)C(NC(=O)Nc1ccc(Cl)c(C(F)(F)F)c1)CC(C)(C)O2 (racemic) [Example 33, R/S-N-4-chloro-3-trifluoromethylphenyl-N'-(6-tert-butoxycarbonylamino-3,4-dihydro-2,2-dimethyl-2H-1-benzopyran-4-yl)urea]	21	23	22	III (Class III: cytostatic but rapidly becomes cytotoxic with < 10% cell death on the 1st day, > 20% of cell death on the 2nd day and > 50% of cell death on the 3rd day)
CC(C)(C)OC(=O)Nc1ccc2c(c1)C(NC(=O)Nc1ccccc1Cl)CC(C)(C)O2 (racemic) [Example 35, R/S-N-2-chlorophenyl-N'-(6-tert-butoxycarbonylamino-3,4-dihydro-2,2-dimethyl-2H-1-benzopyran-4-yl)urea]	59	100	34	–
